# Measurements: patent US20260297081A1, “COMPOUNDS AND METHODS OF TREATING CANCERS” (Cullgen Inc., priority 2023, published 2026)
# What was measured:
# Type in all cases: cell-based
# Calu-1 cells = assay: Anti-proliferation (viability) of NSCLC Calu-1 cells, 3 days (Table 7, FIG. 2B); details: Homo sapiens, 72 h; Calu-1 cells, 3 days, 10-point serial dilution; read-out: GI IC50 in Calu-1
# In short: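 Cells were exposed to heterobifunctional compounds across a 10-point serial dilution, for 3 days with Calu-1 and 6 days with T47D. A negative control was included that keeps the DDB1 ligand and linker but carries a modified warhead that impairs CDK4 binding.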
# MCF7 cells = assay: Anti-proliferation (viability) of MCF7 cells (Table 7, FIG. 2B); details: Homo sapiens, MCF7, MCF7 cells, 3-6 days, 10-point serial dilution; read-out: GI IC50 in MCF-7
# CDK4 = CDK4 (Homo sapiens, UniProt P11802+Q16531); assay: CDK4 percentage degradation in Calu-1 cells (Table 6); design: Cells that express cyclin D1-3 and CDK4/6 proteins were treated with heterobifunctional compounds; endogenous in cells; host or cells: Calu-1; details: 16 hours
# Sequence of CDK4 (P11802 2-303 limits assumed): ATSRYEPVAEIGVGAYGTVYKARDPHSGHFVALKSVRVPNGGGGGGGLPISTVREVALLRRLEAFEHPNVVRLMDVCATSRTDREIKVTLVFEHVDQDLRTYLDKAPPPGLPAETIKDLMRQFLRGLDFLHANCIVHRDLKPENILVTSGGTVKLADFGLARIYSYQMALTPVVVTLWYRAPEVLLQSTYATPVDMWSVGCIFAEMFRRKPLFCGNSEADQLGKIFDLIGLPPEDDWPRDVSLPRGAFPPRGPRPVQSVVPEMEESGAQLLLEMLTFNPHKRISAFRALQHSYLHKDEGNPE
# Sequence of CDK4 (P24385 whole entry partner): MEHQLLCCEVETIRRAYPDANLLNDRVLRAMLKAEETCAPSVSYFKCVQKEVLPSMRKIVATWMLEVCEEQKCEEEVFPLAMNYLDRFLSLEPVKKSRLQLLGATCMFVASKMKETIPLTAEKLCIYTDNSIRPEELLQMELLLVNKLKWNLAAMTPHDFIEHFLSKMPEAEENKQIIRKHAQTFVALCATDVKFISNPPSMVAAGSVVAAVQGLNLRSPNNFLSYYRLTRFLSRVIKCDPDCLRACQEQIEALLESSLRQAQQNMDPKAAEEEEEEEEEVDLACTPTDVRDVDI
# Sequence of CDK4 (Q16531 2-1140 limits assumed): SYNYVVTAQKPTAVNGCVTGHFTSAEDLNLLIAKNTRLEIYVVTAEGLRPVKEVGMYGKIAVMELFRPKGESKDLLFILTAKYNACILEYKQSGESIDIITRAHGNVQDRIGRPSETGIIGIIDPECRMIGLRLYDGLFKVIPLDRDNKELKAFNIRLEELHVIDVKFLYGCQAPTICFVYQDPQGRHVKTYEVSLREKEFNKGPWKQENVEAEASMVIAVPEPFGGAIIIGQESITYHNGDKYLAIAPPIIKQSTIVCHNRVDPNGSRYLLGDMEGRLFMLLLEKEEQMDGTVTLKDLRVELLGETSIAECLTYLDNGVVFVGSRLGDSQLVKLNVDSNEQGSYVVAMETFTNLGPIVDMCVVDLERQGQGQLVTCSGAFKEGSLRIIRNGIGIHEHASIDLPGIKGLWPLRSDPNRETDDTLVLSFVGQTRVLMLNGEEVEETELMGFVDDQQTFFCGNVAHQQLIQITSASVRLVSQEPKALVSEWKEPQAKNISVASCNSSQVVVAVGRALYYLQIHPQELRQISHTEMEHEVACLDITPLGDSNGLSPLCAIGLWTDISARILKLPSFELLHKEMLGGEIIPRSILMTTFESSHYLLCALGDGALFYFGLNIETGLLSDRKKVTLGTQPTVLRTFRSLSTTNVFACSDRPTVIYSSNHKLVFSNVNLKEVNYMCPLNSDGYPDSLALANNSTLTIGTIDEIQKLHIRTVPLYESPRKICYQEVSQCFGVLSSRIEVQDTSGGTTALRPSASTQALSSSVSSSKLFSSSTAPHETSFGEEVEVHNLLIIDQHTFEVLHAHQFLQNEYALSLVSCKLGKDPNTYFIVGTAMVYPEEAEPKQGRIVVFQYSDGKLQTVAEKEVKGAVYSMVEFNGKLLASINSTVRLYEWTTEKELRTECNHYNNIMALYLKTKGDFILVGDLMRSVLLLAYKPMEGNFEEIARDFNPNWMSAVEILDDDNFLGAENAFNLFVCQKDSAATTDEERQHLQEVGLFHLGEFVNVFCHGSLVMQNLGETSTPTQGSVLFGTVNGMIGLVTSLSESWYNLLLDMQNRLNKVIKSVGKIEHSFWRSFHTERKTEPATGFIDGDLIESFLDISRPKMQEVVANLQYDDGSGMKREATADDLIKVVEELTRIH
# In short: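 Percentage degradation of Cyclin D1 and CDK4 derived from densitometry of ECL Western blots on lysates of Calu-1 cells. Treatment was 16 h with compound at either 40 nM or 200 nM.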
IC50 (Calu-1 cells) [nM],IC50 (MCF7 cells) [nM],inhibition at 0.04 µM (CDK4; 40 nM) [%],inhibition at 0.2 µM (CDK4; 200 nM) [%],SMILES
≤ 10,< 50,,,"CC(=O)c1c(C)c2cnc(Nc3ccc(N4CCN(C5CCN(C(=O)[C@H]6CC[C@H](Nc7nc(C(F)(F)F)ccc7C(=O)Nc7ccc(N(C)C)nn7)CC6)C5)CC4)cn3)nc2n(C2CCCC2)c1=O (stereo partly drawn) [CPD-571, 2-((trans-4-(3-(4-(6-((6-acetyl-8-cyclopentyl-5-methyl-7-oxo-7,8-dihydropyrido[2,3-d]pyrimidin-2-yl)amino)pyridin-3-yl)piperazin-1-yl)pyrrolidine-1-carbonyl)cyclohexyl)amino)-N-(6-(dimethylamino)pyridazin-3-yl)-6-(trifluoromethyl)nicotinamide]"
≤ 10,> 100,,,"CC(=O)c1c(C)c2cnc(Nc3ccc(N4CCN(C5CCN(C(=O)[C@H]6CC[C@H](Nc7nc(NC(C)C)ccc7C(=O)Nc7cn8c(n7)CCC8)CC6)C5)CC4)cn3)nc2n(C2CCCC2)c1=O (stereo partly drawn) [CPD-568, 2-((trans-4-(3-(4-(6-((6-acetyl-8-cyclopentyl-5-methyl-7-oxo-7,8-dihydropyrido[2,3-d]pyrimidin-2-yl)amino)pyridin-3-yl)piperazin-1-yl)pyrrolidine-1-carbonyl)cyclohexyl)amino)-N-(6,7-dihydro-5H-pyrrolo[1,2-a]imidazol-2-yl)-6-(isopropylamino)nicotinamide]"
≤ 10,> 100,,,"CC(=O)c1cc2cnc(Nc3ccc(N4CCN(C5CCN(C(=O)[C@H]6CC[C@H](Nc7nc(NC(C)C)ccc7C(=O)Nc7ccc(N(C)C)nn7)CC6)C5)CC4)cn3)nc2n(C2CCCC2)c1=O (stereo partly drawn) [CPD-560, 2-((trans-4-(3-(4-(6-((6-acetyl-8-cyclopentyl-7-oxo-7,8-dihydropyrido[2,3-d]pyrimidin-2-yl)amino)pyridin-3-yl)piperazin-1-yl)pyrrolidine-1-carbonyl)cyclohexyl)amino)-N-(6-(dimethylamino)pyridazin-3-yl)-6-(isopropylamino)nicotinamide]"
≤ 10,< 50,,,"CC(=O)c1c(C)c2cnc(Nc3ccc(N4CCC(N5CCC[C@H]5C(=O)N5CC6(CC(Nc7nc(NC(C)C)ccc7C(=O)Nc7ccc(N(C)C)nn7)C6)C5)CC4)cn3)nc2n(C2CCCC2)c1=O [CPD-544, 2-((2-((1-(6-((6-acetyl-8-cyclopentyl-5-methyl-7-oxo-7,8-dihydropyrido[2,3-d]pyrimidin-2-yl)amino)pyridin-3-yl)piperidin-4-yl)-L-prolyl)-2-azaspiro[3.3]heptan-6-yl)amino)-N-(6-(dimethylamino)pyridazin-3-yl)-6-(isopropylamino)nicotinamide]"
≤ 10,< 50,,,"[2H]C([2H])([2H])Nc1ccc(C(=O)Nc2ccc(N(C)C)nn2)c(N[C@H]2CC[C@H](C(=O)N3CCC(N4CCN(c5ccc(Nc6ncc7c(C)c(C(C)=O)c(=O)n(C8CCCC8)c7n6)nc5)CC4)C3)CC2)n1 (stereo partly drawn) [CPD-476, 2-((trans-4-(3-(4-(6-((6-acetyl-8-cyclopentyl-5-methyl-7-oxo-7,8-dihydropyrido[2,3-d]pyrimidin-2-yl)amino)pyridin-3-yl)piperazin-1-yl)pyrrolidine-1-carbonyl)cyclohexyl)amino)-N-(6-(dimethylamino)pyridazin-3-yl)-6-((methyl-d3)amino)nicotinamide]"
≤ 10,< 50,,,"CC(=O)c1c(C)c2cnc(Nc3ccc(N4CCN(C5CCN(C(=O)C67CC(Nc8nc(NC(C)C)ccc8C(=O)Nc8ccc(N(C)C)nn8)(C6)C7)C5)CC4)cn3)nc2n(C2CCCC2)c1=O (centres unmarked) [CPD-534, 2-((3-(3-(4-(6-((6-acetyl-8-cyclopentyl-5-methyl-7-oxo-7,8-dihydropyrido[2,3-d]pyrimidin-2-yl)amino)pyridin-3-yl)piperazin-1-yl)pyrrolidine-1-carbonyl)bicyclo[1.1.1]pentan-1-yl)amino)-N-(6-(dimethylamino)pyridazin-3-yl)-6-(isopropylamino)nicotinamide]"
10 to 50,50 to 100,,,"CC(C)Nc1ccc(C(=O)Nc2ccc(N(C)C)nn2)c(NC2CCC(C(=O)N3CCC(N4CCN(c5ccc(Nc6ncc7ccc(=O)n(C8CCCC8)c7n6)nc5)CC4)C3)CC2)n1 (centres unmarked) [CPD-535, 2-((4-(3-(4-(6-((8-cyclopentyl-7-oxo-7,8-dihydropyrido[2,3-d]pyrimidin-2-yl)amino)pyridin-3-yl)piperazin-1-yl)pyrrolidine-1-carbonyl)cyclohexyl)amino)-N-(6-(dimethylamino)pyridazin-3-yl)-6-(isopropylamino)nicotinamide]"

# Second part, the molecule before the results:
SMILES,IC50 (Calu-1 cells) [nM],IC50 (MCF7 cells) [nM],inhibition at 0.04 µM (CDK4; 40 nM) [%],inhibition at 0.2 µM (CDK4; 200 nM) [%]
"CNc1ccc(C(=O)Nc2ccc(N(C)C)nn2)c(NC2CC3(CC(NC(=O)C(C)(C)N4CCN(c5ccc(Nc6ncc7c(C)c(C(C)=O)c(=O)n(C8CCCC8)c7n6)nc5)CC4)C3)C2)n1 (centres unmarked) [CPD-174, 2-((6-(2-(4-(6-((6-acetyl-8-cyclopentyl-5-methyl-7-oxo-7,8-dihydropyrido[2,3-d]pyrimidin-2-yl)amino)pyridin-3-yl)piperazin-1-yl)-2-methylpropanamido)spiro[3.3]heptan-2-yl)amino)-N-(6-(dimethylamino)pyridazin-3-yl)-6-(methylamino)nicotinamide]",10 to 50,> 100,50 to 80,> 80
"CC(=O)c1c(C)c2cnc(Nc3ccc(N4CCN(C5CCN(C(=O)[C@H]6CC[C@H](Nc7nc(NC(C)C)ccc7-c7nc8cnc(N(C)C)cc8[nH]7)CC6)C5)CC4)cn3)nc2n(C2CCCC2)c1=O (stereo partly drawn) [CPD-552, trans-6-acetyl-8-cyclopentyl-2-((5-(4-(1-(trans-4-((3-(6-(dimethylamino)-3H-imidazo[4,5-c]pyridin-2-yl)-6-(isopropylamino)pyridin-2-yl)amino)cyclohexane-1-carbonyl)pyrrolidin-3-yl)piperazin-1-yl)pyridin-2-yl)amino)-5-methylpyrido[2,3-d]pyrimidin-7(8H)-one]",≥ 50,> 100,,
"CC(=O)c1c(C)c2cnc(Nc3ccc(CN4CCN(CC(=O)N5CCC(Nc6nc(NC(C)C)ccc6C(=O)Nc6cn7c(n6)CCC7)CC5)CC4)cn3)nc2n(C2CCCC2)c1=O [CPD-564, 2-((1-(2-(4-((6-((6-acetyl-8-cyclopentyl-5-methyl-7-oxo-7,8-dihydropyrido[2,3-d]pyrimidin-2-yl)amino)pyridin-3-yl)methyl)piperazin-1-yl)acetyl)piperidin-4-yl)amino)-N-(6,7-dihydro-5H-pyrrolo[1,2-a]imidazol-2-yl)-6-(isopropylamino)nicotinamide]",10 to 50,> 100,,
"[2H]C([2H])([2H])Nc1ccc(C(=O)Nc2cn3c(n2)CCC3)c(NC2CC3(C2)CN(C(=O)CC(N2CCN(c4ccc(Nc5ncc6c(C)c(C(C)=O)c(=O)n(C7CCCC7)c6n5)nc4)CC2)C(F)(F)F)C3)n1 (centres unmarked) [CPD-567, 2-((2-(3-(4-(6-((6-acetyl-8-cyclopentyl-5-methyl-7-oxo-7,8-dihydropyrido[2,3-d]pyrimidin-2-yl)amino)pyridin-3-yl)piperazin-1-yl)-4,4,4-trifluorobutanoyl)-2-azaspiro[3.3]heptan-6-yl)amino)-N-(6,7-dihydro-5H-pyrrolo[1,2-a]imidazol-2-yl)-6-((methyl-d3)amino)nicotinamide]",≤ 10,50 to 100,,
"CNc1ccc(C(=O)Nc2cc(C)on2)c(NC2CC(CNC(=O)CN3CCN(c4ccc(Nc5ncc6c(C)c(C(C)=O)c(=O)n(C7CCCC7)c6n5)nc4)CC3)C2)n1 (centres unmarked) [CPD-281, 2-((3-((2-(4-(6-((6-acetyl-8-cyclopentyl-5-methyl-7-oxo-7,8-dihydropyrido[2,3-d]pyrimidin-2-yl)amino)pyridin-3-yl)piperazin-1-yl)acetamido)methyl)cyclobutyl)amino)-6-(methylamino)-N-(5-methylisoxazol-3-yl)nicotinamide]",10 to 50,> 100,,
"CC(=O)c1c(C)c2cnc(Nc3ccc(CN4CCN(CC(=O)N5CCC6(CCC(Nc7nc(NC(C)C)ccc7C(=O)Nc7cc8n(n7)CCC8)C6)C5)CC4)cn3)nc2n(C2CCCC2)c1=O (centres unmarked) [CPD-549, 2-((2-(2-(4-((6-((6-acetyl-8-cyclopentyl-5-methyl-7-oxo-7,8-dihydropyrido[2,3-d]pyrimidin-2-yl)amino)pyridin-3-yl)methyl)piperazin-1-yl)acetyl)-2-azaspiro[4.4]nonan-7-yl)amino)-N-(5,6-dihydro-4H-pyrrolo[1,2-b]pyrazol-2-yl)-6-(isopropylamino)nicotinamide]",≤ 10,< 50,,
"CC(=O)c1c(C)c2cnc(Nc3ccc(N4CC5(CN(CCC(=O)N6CC7(CC(Nc8nc(NC(C)C)ccc8C(=O)Nc8ccc(N(C)C)nn8)C7)C6)C5)C4)cn3)nc2n(C2CCCC2)c1=O [CPD-455, 2-((2-(3-(6-(6-((6-acetyl-8-cyclopentyl-5-methyl-7-oxo-7,8-dihydropyrido[2,3-d]pyrimidin-2-yl)amino)pyridin-3-yl)-2,6-diazaspiro[3.3]heptan-2-yl)propanoyl)-2-azaspiro[3.3]heptan-6-yl)amino)-N-(6-(dimethylamino)pyridazin-3-yl)-6-(isopropylamino)nicotinamide]",≤ 10,< 50,,
"[2H]C([2H])([2H])Nc1ccc(C(=O)Nc2cn(C)c(C3CC3)n2)c(NC2CCC(NC(=O)CN3CCN(c4ccc(Nc5ncc6c(C)c(C(C)=O)c(=O)n(C7CCCC7)c6n5)nc4)CC3)C2)n1 (centres unmarked) [CPD-285, 2-((3-(2-(4-(6-((6-acetyl-8-cyclopentyl-5-methyl-7-oxo-7,8-dihydropyrido[2,3-d]pyrimidin-2-yl)amino)pyridin-3-yl)piperazin-1-yl)acetamido)cyclopentyl)amino)-N-(2-cyclopropyl-1-methyl-1H-imidazol-4-yl)-6-((methyl-d3)amino)nicotinamide]",10 to 50,> 100,,
